Measurements reported in patent publication US4861788A, “Antibacterial 1-normon-2-yl-heterocyclic compounds” (Beecham Group plc, priority 1983, dated 1989).
In brackets after ≈: the same amount, converted by molar mass. Where two headings read alike, the source gives them in different places.

Key:
[1] = tested on: M. hyopneumoniae JF 435; test: MIC against Mycoplasma in vitro (Friis broth with agarose); format: cell-based; settings: Mesomycoplasma hyopneumoniae, JF435, 144 h; M. hyopneumoniae JF 435; 6 days at 37° C; read-out: MIC
[2] = tested on: M. hyopneumoniae Str. 11; test: as above; format: cell-based; settings: Mesomycoplasma hyopneumoniae, 144 h; M. hyopneumoniae Str. 11; 6 days at 37° C; read-out: MIC
[3] = tested on: M. hyopneumoniae J2206/183^b; test: as above; format: cell-based; settings: Mesomycoplasma hyopneumoniae, 144 h; M. hyopneumoniae J2206/183^b; 6 days at 37° C; read-out: MIC
[4] = tested on: M. hyopneumoniae TAM 6N; test: as above; format: cell-based; settings: Mesomycoplasma hyopneumoniae, TAM6N, 144 h; M. hyopneumoniae TAM 6N; 6 days at 37° C; read-out: MIC
[5] = tested on: M. hyopneumoniae NCTC 101101; test: as above; format: cell-based; settings: Mesomycoplasma hyopneumoniae, NCTC101101, 144 h; M. hyopneumoniae NCTC 101101; 6 days at 37° C; read-out: MIC
[6] = tested on: M. hyorhinis ATCC 25021; test: as above; format: cell-based; settings: Mesomycoplasma hyorhinis, ATCC25021, 144 h; M. hyorhinis ATCC 25021; 6 days at 37° C; read-out: MIC
[7] = tested on: M. bovigenitalium ATCC 14173; test: as above; format: cell-based; settings: 144 h
[8] = tested on: M. dispar NCTC 10125; test: as above; format: cell-based; settings: 144 h
[9] = tested on: Bacillus subtilis 6633; test: MIC against human bacteria in vitro (nutrient agar, chocolated horse blood); format: cell-based; settings: human; Bacillus subtilis 6633; 18 hours at 37° C; read-out: MIC
Procedure: (§1) The activity of the normonyl derivaties of the Examples against various bacteria which are important in diseases of humans, was assayed in vitro using serial dilutions in nurient agar with 5% chocolated horse blood.

[10] = tested on: E. coli ESS; test: as above; format: cell-based; settings: Escherichia coli; human; E. coli ESS; 18 hours at 37° C; read-out: MIC
Procedure: as §1

[11] = tested on: E. coli NCTC 10418; test: as above; format: cell-based; settings: Escherichia coli, NCTC10418; human; E. coli NCTC 10418; 18 hours at 37° C; read-out: MIC
Procedure: as §1

[12] = tested on: Haemophilus influenzae Wy21; test: as above; format: cell-based
Procedure: as §1

[13] = tested on: K. aerogenes A; test: as above; format: cell-based; settings: Klebsiella aerogenes; human; K. aerogenes A; 18 hours at 37° C; read-out: MIC
Procedure: as §1

[14] = tested on: Pasteurella multocida 1633; test: as above; format: cell-based; settings: human; Pasteurella multocida 1633; 18 hours at 37° C; read-out: MIC
Procedure: as §1

[15] = tested on: Ps. aeruginosa NCTC 10662; test: as above; format: cell-based; settings: Pseudomonas aeruginosa, NCTC10662; human; Ps. aeruginosa NCTC 10662; 18 hours at 37° C; read-out: MIC
Procedure: as §1

[16] = tested on: Sarcina lutea 8340; test: as above; format: cell-based; settings: Micrococcus luteus; human; Sarcina lutea 8340; 18 hours at 37° C; read-out: MIC
Procedure: as §1

[17] = tested on: Staph. aureus Oxford; test: as above; format: cell-based; settings: Staphylococcus aureus; human; Staph. aureus Oxford; 18 hours at 37° C; read-out: MIC
Procedure: as §1

[18] = tested on: Staph. aureus Russell; test: as above; format: cell-based; settings: Staphylococcus aureus; human; Staph. aureus Russell; 18 hours at 37° C; read-out: MIC
Procedure: as §1

[19] = tested on: Staph. aureus W2827; test: as above; format: cell-based; settings: Staphylococcus aureus; human; Staph. aureus W2827; 18 hours at 37° C; read-out: MIC
Procedure: as §1

[20] = tested on: Strep. agalactiae 2788-B; test: as above; format: cell-based; settings: Streptococcus agalactiae; human; Strep. agalactiae 2788-B; 18 hours at 37° C; read-out: MIC
Procedure: as §1

[21] = tested on: Strep. faecalis I; test: as above; format: cell-based; settings: Enterococcus faecalis; human; Strep. faecalis I; 18 hours at 37° C; read-out: MIC
Procedure: as §1

[22] = tested on: Strep. spp. 64/848-C; test: as above; format: cell-based; settings: human; Strep. spp. 64/848-C; 18 hours at 37° C; read-out: MIC
Procedure: as §1

[23] = tested on: E. coli NCTC 10418; test: MIC against veterinary bacteria in vitro (Diagnostic Sensitivity Test Agar); settings: Escherichia coli, NCTC10418, 18 h
Procedure: (§2) The activity of the normonyl derivatives of the Examples against various veterinarily important bacteria, was assayed in vitro using two-fold serial dilutions in Diagnostic Sensitivity Test Agar inoculated with 10^4 organisms.

[24] = tested on: E. coli E1; test: as above; settings: Escherichia coli, E1, 18 h
Procedure: as §2

[25] = tested on: Bord. bronchiseptica B09; test: as above; settings: Bordetella bronchiseptica, B09, 18 h
Procedure: as §2

[26] = tested on: Past. haemolytica PA5; test: as above; settings: Mannheimia haemolytica, PA5, 18 h
Procedure: as §2

[27] = tested on: Staph. aureus B4 (pen. resistant); test: as above; settings: Staphylococcus aureus, 18 h
Procedure: as §2

[28] = tested on: Staph. aureus Oxford; test: as above; settings: Staphylococcus aureus, 18 h
Procedure: as §2

[29] = tested on: Strep. uberis SPU1; test: as above; settings: Streptococcus uberis, SPU1, 18 h
Procedure: as §2

[30] = tested on: P. mirabilis 889; test: MIC against human bacteria in vitro (nutrient agar, chocolated horse blood); format: cell-based; settings: Proteus mirabilis; human; P. mirabilis 889; 18 hours at 37° C; read-out: MIC
Procedure: as §1

SMILES	MIC [1] [µg/mL]	MIC [2] [µg/mL]	MIC [3] [µg/mL]	MIC [4] [µg/mL]	MIC [5] [µg/mL]	MIC [6] [µg/mL]	MIC [9] [µg/mL]	MIC [10] [µg/mL]	MIC [11] [µg/mL]	MIC [13] [µg/mL]	MIC [14] [µg/mL]	MIC [15] [µg/mL]	MIC [16] [µg/mL]	MIC [17] [µg/mL]	MIC [18] [µg/mL]	MIC [19] [µg/mL]	MIC [20] [µg/mL]	MIC [21] [µg/mL]	MIC [22] [µg/mL]	MIC [23] [µg/mL]	other results
CC(=Cc1nnc(-c2ccncc2)o1)CC1OCC(CC2OC2C(C)C(C)O)C(O)C1O (centres unmarked) [Example 7, 2-(1-Normon-2-yl)-5-(4-pyridyl)-1,3,4-oxadiazole A]	2.5 (≈ 5.61 µM)	0.5 (≈ 1.12 µM)	2.5 (≈ 5.61 µM)	2.5 (≈ 5.61 µM)	2.5 (≈ 5.61 µM)	0.5 (≈ 1.12 µM)	2 (≈ 4.49 µM)	64 (≈ 144 µM)	> 128	128 (≈ 287 µM)	> 128	> 128	> 128	2 (≈ 4.49 µM)	32 (≈ 71.8 µM)	32 (≈ 71.8 µM)	8 (≈ 18 µM)	> 128	8 (≈ 18 µM)	> 80	MIC [7]: 0.25 µg/mL (≈ 0.561 µM); MIC [8]: 0.25 µg/mL (≈ 0.561 µM); MIC ([12]; Haemophilus influenzae, WY21, 18 h): 1 µg/mL (≈ 2.24 µM); MIC [24]: > 80 µg/mL; MIC [25]: 20 µg/mL (≈ 44.9 µM); MIC [26]: 20 µg/mL (≈ 44.9 µM); MIC [27]: 10 µg/mL (≈ 22.4 µM); MIC [28]: > 80 µg/mL; MIC [29]: 2.5 µg/mL (≈ 5.61 µM)
CC(=Cc1nnc(-c2ccco2)o1)CC1OCC(CC2OC2C(C)C(C)O)C(O)C1O (centres unmarked) [Example 8, 2-(2-Furyl)-5-(1-normon-2-yl)-1,3,4-oxadiazole A]	10 (≈ 23 µM)	5 (≈ 11.5 µM)	10 (≈ 23 µM)	10 (≈ 23 µM)	10 (≈ 23 µM)	2.5 (≈ 5.75 µM)	4 (≈ 9.21 µM)	8 (≈ 18.4 µM)	> 128	> 128	1 (≈ 2.3 µM)	> 128	> 128	4 (≈ 9.21 µM)	64 (≈ 147 µM)	32 (≈ 73.6 µM)	32 (≈ 73.6 µM)	> 128	32 (≈ 73.6 µM)	> 80	MIC ([7]; M. bovigenitalium ATCC 14173, 6 days at 37° C, read-out: MIC): 0.5 µg/mL (≈ 1.15 µM); MIC ([8]; M. dispar NCTC 10125, 6 days at 37° C, read-out: MIC): 1 µg/mL (≈ 2.3 µM); MIC ([12]; human, Haemophilus influenzae Wy21, 18 hours at 37° C, read-out: MIC): 0.25 µg/mL (≈ 0.575 µM); MIC [30]: > 128 µg/mL; MIC [24]: > 80 µg/mL; MIC [25]: 80 µg/mL (≈ 184 µM); MIC [26]: 40 µg/mL (≈ 92.1 µM); MIC [27]: 20 µg/mL (≈ 46 µM); MIC [28]: 80 µg/mL (≈ 184 µM); MIC [29]: 10 µg/mL (≈ 23 µM)
